Values of other authors, collected in patent US20260283918A1, “AZELAIC ACID/BETAINE/PANTHENOL SELF-RECOGNITION DES SYSTEM AND PREPARATION METHOD” (Wuxi Zhiyan Biotechnology Co., LTD, priority 2023, published 2026).

Settings: water and oil

solubility of azelaic acid: poor solubility in both water and oil
SMILES: O=C(O)CCCCCCCC(=O)O [azelaic acid]
